# Patent US20230085307A1, “PYRIDAZINONE COMPOUND AND HERBICIDE” (NISSAN CHEMICAL CORPORATION, priority 2019, published 2023)
# Experiments:
# persian speedwell [1] = assay: Test Example 5: herbicidal effect by foliage application, plastic box (Table 20, symbol R); format: in vivo, Persian speedwell (Veronica persica); settings: foliage application, 320 g/ha
# Summary of the method: (§1)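 Plants sown in sterilized diluvial soil and grown 14 days in a greenhouse at 25° C to 30° C, then sprayed on the foliage with the compound's emulsion diluted in water to a predetermined herbicide amount. Injury to weeds and crops scored three weeks after application on a visual rating scale.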
# southern crabgrass [2] = assay: Test Example 4: herbicidal effect by soil treatment (Table 19, symbol F); format: in vivo, southern crabgrass (Digitaria ciliaris); settings: 320 g/ha
# Summary of the method: (§2)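 Seeds were sown in sterilized diluvial soil and covered with about 1.5 cm of soil. An emulsion formulation diluted with water to a predetermined herbicide amount was sprayed evenly onto the soil surface. Plants grew in a greenhouse at 25° C. to 30° C., and the effect was scored three weeks after application using criteria from an earlier test.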
# blackgrass [3] = assay: Test Example 4: herbicidal effect by soil treatment (Table 19, symbol J); format: in vivo, blackgrass (Alopecurus myosuroides); settings: 320 g/ha
# Summary of the method: as §2
# velvetleaf [4] = assay: Test Example 4: herbicidal effect by soil treatment (Table 19, symbol M); format: in vivo, velvetleaf (Abutilon theophrasti); settings: 320 g/ha
# Summary of the method: as §2
# Chinese sprangletop = assay: Test Example 3: herbicidal effect by foliage application, Wagner pot (Table 18, symbol D); format: in vivo, chinese sprangletop (Leptochloa chinensis); settings: 320 g/ha
# Summary of the method: (§3)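 Plants were sown in alluvial soil held under 0.1–0.5 cm standing water and grown 14 days in a greenhouse at 25–30 °C. An emulsifiable formulation, water-diluted to the set dose, was then sprayed onto the foliage, and effects were scored three weeks later using previously defined criteria.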
# blackgrass [5] = assay: Test Example 5: herbicidal effect by foliage application, plastic box (Table 20, symbol J); format: in vivo, blackgrass (Alopecurus myosuroides); settings: foliage application, 320 g/ha
# Summary of the method: as §1
# green foxtail [6] = assay: Test Example 5: herbicidal effect by foliage application, plastic box (Table 20, symbol G); format: in vivo, green foxtail (Setaria viridis); settings: foliage application, 320 g/ha
# Summary of the method: as §1
# barnyard grass [7] = assay: Test Example 4: herbicidal effect by soil treatment (Table 19, symbol H); format: in vivo, barnyard grass (Echinochloa crus-galli); settings: 320 g/ha
# Summary of the method: as §2
# windgrass [8] = assay: Test Example 5: herbicidal effect by foliage application, plastic box (Table 20, symbol L); format: in vivo, windgrass (Apera spica-venti); settings: foliage application, 320 g/ha
# Summary of the method: as §1
# barnyard grass [9] = assay: Test Example 3: herbicidal effect by foliage application, Wagner pot (Table 18, symbol H); format: in vivo, barnyard grass (Echinochloa crus-galli); settings: 320 g/ha
# Summary of the method: as §3
# green foxtail [10] = assay: Test Example 4: herbicidal effect by soil treatment (Table 19, symbol G); format: in vivo, green foxtail (Setaria viridis); settings: 320 g/ha
# Summary of the method: as §2
# lambsquarters [11] = assay: Test Example 4: herbicidal effect by soil treatment (Table 19, symbol O); format: in vivo, lambsquarters (Chenopodium album); settings: 320 g/ha
# Summary of the method: as §2
# Italian ryegrass [12] = assay: Test Example 5: herbicidal effect by foliage application, plastic box (Table 20, symbol K); format: in vivo, Italian ryegrass (Lolium multiflorum); settings: foliage application, 320 g/ha
# Summary of the method: as §1
# velvetleaf [13] = assay: Test Example 5: herbicidal effect by foliage application, plastic box (Table 20, symbol M); format: in vivo, velvetleaf (Abutilon theophrasti); settings: foliage application, 320 g/ha
# Summary of the method: as §1
# persian speedwell [14] = assay: Test Example 4: herbicidal effect by soil treatment (Table 19, symbol R); format: in vivo, Persian speedwell (Veronica persica); settings: 320 g/ha
# Summary of the method: as §2
# wild oat [15] = assay: Test Example 4: herbicidal effect by soil treatment (Table 19, symbol I); format: in vivo, wild oat (Avena fatua); settings: 320 g/ha
# Summary of the method: as §2
# wild oat [16] = assay: Test Example 5: herbicidal effect by foliage application, plastic box (Table 20, symbol I); format: in vivo, wild oat (Avena fatua); settings: foliage application, 320 g/ha
# Summary of the method: as §1
# redroot pigweed [17] = assay: Test Example 4: herbicidal effect by soil treatment (Table 19, symbol N); format: in vivo, redroot pigweed (Amaranthus retroflexus); settings: 320 g/ha
# Summary of the method: as §2
# rice flat sedge = assay: Test Example 3: herbicidal effect by foliage application, Wagner pot (Table 18, symbol E); format: in vivo, rice flat sedge (Cyperus iria); settings: 320 g/ha
# Summary of the method: as §3
# southern crabgrass [18] = assay: Test Example 5: herbicidal effect by foliage application, plastic box (Table 20, symbol F); format: in vivo, southern crabgrass (Digitaria ciliaris); settings: foliage application, 320 g/ha
# Summary of the method: as §1
# oval-leafed pondweed [19] = assay: Test Example 2: herbicidal activity, application during weed generation under submerged conditions (Table 17, symbol C); format: in vivo, oval-leafed pondweed (Monochoria vaginalis); settings: AAH 320 g/ha; application during weed generation, submerged conditions
# Summary of the method: (§4)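 Mixed weed seedlings in alluvial soil under a 4 cm water layer, greenhouse-grown at 25–30° C. Compound given as a diluted emulsion into the floodwater at the 1–2 leaf stage; response graded after three weeks.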
# lambsquarters [20] = assay: Test Example 5: herbicidal effect by foliage application, plastic box (Table 20, symbol O); format: in vivo, lambsquarters (Chenopodium album); settings: foliage application, 320 g/ha
# Summary of the method: as §1
# Japanese bulrush [21] = assay: Test Example 2: herbicidal activity, application during weed generation under submerged conditions (Table 17, symbol B); format: in vivo, Japanese bulrush (Schoenoplectus juncoides); settings: AAH 320 g/ha; application during weed generation, submerged conditions
# Summary of the method: as §4
# chickweed [22] = assay: Test Example 4: herbicidal effect by soil treatment (Table 19, symbol P); format: in vivo, common chickweed (Stellaria media); settings: 320 g/ha
# Summary of the method: as §2
# false cleavers = assay: Test Example 5: herbicidal effect by foliage application, plastic box (Table 20, symbol Q); format: in vivo, false cleavers (Galium spurium); settings: foliage application, 320 g/ha
# Summary of the method: as §1
# barnyard grass [23] = assay: Test Example 5: herbicidal effect by foliage application, plastic box (Table 20, symbol H); format: in vivo, barnyard grass (Echinochloa crus-galli); settings: foliage application, 320 g/ha
# Summary of the method: as §1
# Italian ryegrass [24] = assay: Test Example 4: herbicidal effect by soil treatment (Table 19, symbol K); format: in vivo, Italian ryegrass (Lolium multiflorum); settings: 320 g/ha
# Summary of the method: as §2
# late watergrass [25] = assay: Test Example 2: herbicidal activity, application during weed generation under submerged conditions (Table 17, symbol A); format: in vivo, late watergrass (Echinochloa oryzicola); settings: AAH 320 g/ha; application during weed generation, submerged conditions
# Summary of the method: as §4
# windgrass [26] = assay: Test Example 4: herbicidal effect by soil treatment (Table 19, symbol L); format: in vivo, windgrass (Apera spica-venti); settings: 320 g/ha
# Summary of the method: as §2
# oval-leafed pondweed [27] = assay: Test Example 1: herbicidal activity, application before weed generation under submerged conditions (Table 16, symbol C); format: in vivo, oval-leafed pondweed (Monochoria vaginalis); settings: 320 g/ha applied herbicide
# Summary of the method: (§5)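 Alluvial soil was flooded to 4 cm depth, weed seeds were sown mixed and 2.5-leaf rice seedlings were transplanted. On sowing day, the compound's emulsion, diluted in water to a set dose, was applied to the water surface. Plants grew at 25–30 °C and were scored 0–5 after three weeks.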
# chickweed [28] = assay: Test Example 5: herbicidal effect by foliage application, plastic box (Table 20, symbol P); format: in vivo, common chickweed (Stellaria media); settings: foliage application, 320 g/ha, evaluated three weeks after application
# Summary of the method: as §1
# redroot pigweed [29] = assay: Test Example 5: herbicidal effect by foliage application, plastic box (Table 20, symbol N); format: in vivo, redroot pigweed (Amaranthus retroflexus); settings: foliage application, 320 g/ha, evaluated three weeks after application
# Summary of the method: as §1
# Japanese bulrush [30] = assay: Test Example 1: herbicidal activity, application before weed generation under submerged conditions (Table 16, symbol B); format: in vivo, Japanese bulrush (Schoenoplectus juncoides); settings: 320 g/ha applied herbicide
# Summary of the method: as §5
# late watergrass [31] = assay: Test Example 1: herbicidal activity, application before weed generation under submerged conditions (Table 16, symbol A); format: in vivo, late watergrass (Echinochloa oryzicola); settings: 320 g/ha applied herbicide
# Summary of the method: as §5
# [32] = evaluated three weeks after application
compound,measurement,setting,value
CCOc1ccccc1-c1sc2ccc(F)cc2c1-c1c(O)c(C)nn(C)c1=O [2-028],effect on persian speedwell (R),persian speedwell [1]; 3 weeks after application,5 (Herbicidal rate of 90% or more (almost completely withered))
same,"herbicidal effect rating, F: southern crabgrass",southern crabgrass [2],3 (Herbicidal rate of 40% or more and less than 70%)
same,"herbicidal effect rating, J: blackgrass",blackgrass [3],0 (Herbicidal rate of 5% or less (almost no effect))
same,"herbicidal effect rating, M: velvetleaf",velvetleaf [4],3 (Herbicidal rate of 40% or more and less than 70%)
same,"herbicidal effect on D (Chinese sprangletop), rating 0-5",Chinese sprangletop,3 (Herbicidal rate of 40% or more and less than 70%)
same,effect on blackgrass (J),blackgrass [5]; 3 weeks after application,4 (Herbicidal rate of 70% or more and less than 90%)
same,effect on green foxtail (G),green foxtail [6]; 3 weeks after application,4 (Herbicidal rate of 70% or more and less than 90%)
same,"herbicidal effect rating, H: barnyard grass",barnyard grass [7],3 (Herbicidal rate of 40% or more and less than 70%)
same,effect on windgrass (L),windgrass [8]; 3 weeks after application,4 (Herbicidal rate of 70% or more and less than 90%)
same,"herbicidal effect on H (barnyard grass), rating 0-5",barnyard grass [9],4 (Herbicidal rate of 70% or more and less than 90%)
same,"herbicidal effect rating, G: green foxtail",green foxtail [10],2 (Herbicidal rate of 20% or more and less than 40%)
same,"herbicidal effect rating, O: lambsquarters",lambsquarters [11],3 (Herbicidal rate of 40% or more and less than 70%)
same,effect on Italian ryegrass (K),Italian ryegrass [12]; 3 weeks after application,3 (Herbicidal rate of 40% or more and less than 70%)
same,effect on velvetleaf (M),velvetleaf [13]; 3 weeks after application,4 (Herbicidal rate of 70% or more and less than 90%)
same,"herbicidal effect rating, R: persian speedwell",persian speedwell [14],5 (Herbicidal rate of 90% or more (almost completely withered))
same,"herbicidal effect rating, I: wild oat",wild oat [15],0 (Herbicidal rate of 5% or less (almost no effect))
same,effect on wild oat (I),wild oat [16]; 3 weeks after application,3 (Herbicidal rate of 40% or more and less than 70%)
same,"herbicidal effect rating, N: redroot pigweed",redroot pigweed [17],5 (Herbicidal rate of 90% or more (almost completely withered))
same,"herbicidal effect on E (rice flat sedge), rating 0-5",rice flat sedge,5 (Herbicidal rate of 90% or more (almost completely withered))
same,effect on southern crabgrass (F),southern crabgrass [18]; 3 weeks after application,3 (Herbicidal rate of 40% or more and less than 70%)
same,"herbicidal effect rating, C: oval-leafed pondweed",oval-leafed pondweed [19],3 (Herbicidal rate of 40% or more and less than 70%)
same,effect on lambsquarters (O),lambsquarters [20]; 3 weeks after application,3 (Herbicidal rate of 40% or more and less than 70%)
same,"herbicidal effect rating, B: Japanese bulrush",Japanese bulrush [21],1 (Herbicidal rate of 5% or more and less than 20%)
same,"herbicidal effect rating, P: chickweed",chickweed [22],4 (Herbicidal rate of 70% or more and less than 90%)
same,effect on false cleavers (Q),false cleavers; 3 weeks after application,5 (Herbicidal rate of 90% or more (almost completely withered))
same,effect on barnyard grass (H),barnyard grass [23]; 3 weeks after application,4 (Herbicidal rate of 70% or more and less than 90%)
same,"herbicidal effect rating, K: Italian ryegrass",Italian ryegrass [24],0 (Herbicidal rate of 5% or less (almost no effect))
same,"herbicidal effect rating, A: late watergrass",late watergrass [25],3 (Herbicidal rate of 40% or more and less than 70%)
same,"herbicidal effect rating, L: windgrass",windgrass [26],0 (Herbicidal rate of 5% or less (almost no effect))
COCCOCOc1c(C)nn(C)c(=O)c1-c1c(-c2ccc(OCc3ccccc3)cc2)sc2ccc(F)cc12 [2-064],herbicidal effect on R: persian speedwell,persian speedwell [1]; [32],4 (Herbicidal rate of 70% or more and less than 90%)
same,Herbicidal effect on C: oval-leafed pondweed (grade 0-5),oval-leafed pondweed [27],3 (Herbicidal rate of 40% or more and less than 70%)
same,"herbicidal effect on D (Chinese sprangletop), rating 0-5",Chinese sprangletop,3 (Herbicidal rate of 40% or more and less than 70%)
same,herbicidal effect on J: blackgrass,blackgrass [5]; [32],0 (Herbicidal rate of 5% or less (almost no effect))
same,herbicidal effect on P: chickweed,chickweed [28],4 (Herbicidal rate of 70% or more and less than 90%)
same,herbicidal effect on G: green foxtail,green foxtail [6]; [32],3 (Herbicidal rate of 40% or more and less than 70%)
same,herbicidal effect on N: redroot pigweed,redroot pigweed [29],5 (Herbicidal rate of 90% or more (almost completely withered))
same,herbicidal effect on L: windgrass,windgrass [8]; [32],0 (Herbicidal rate of 5% or less (almost no effect))
same,"herbicidal effect on H (barnyard grass), rating 0-5",barnyard grass [9],3 (Herbicidal rate of 40% or more and less than 70%)
same,herbicidal effect on K: Italian ryegrass,Italian ryegrass [12]; [32],0 (Herbicidal rate of 5% or less (almost no effect))
same,herbicidal effect on M: velvetleaf,velvetleaf [13]; [32],3 (Herbicidal rate of 40% or more and less than 70%)
same,herbicidal effect on I: wild oat,wild oat [16]; [32],0 (Herbicidal rate of 5% or less (almost no effect))
same,"herbicidal effect on E (rice flat sedge), rating 0-5",rice flat sedge,0 (Herbicidal rate of 5% or less (almost no effect))
same,herbicidal effect on F: southern crabgrass,southern crabgrass [18]; [32],3 (Herbicidal rate of 40% or more and less than 70%)
same,"herbicidal effect rating, C: oval-leafed pondweed",oval-leafed pondweed [19],0 (Herbicidal rate of 5% or less (almost no effect))
same,herbicidal effect on O: lambsquarters,lambsquarters [20]; [32],4 (Herbicidal rate of 70% or more and less than 90%)
same,"herbicidal effect rating, B: Japanese bulrush",Japanese bulrush [21],3 (Herbicidal rate of 40% or more and less than 70%)
same,Herbicidal effect on B: Japanese bulrush (grade 0-5),Japanese bulrush [30],4 (Herbicidal rate of 70% or more and less than 90%)
same,Herbicidal effect on A: late watergrass (grade 0-5),late watergrass [31],4 (Herbicidal rate of 70% or more and less than 90%)
same,herbicidal effect on Q: false cleavers,false cleavers; [32],4 (Herbicidal rate of 70% or more and less than 90%)
same,herbicidal effect on H: barnyard grass,barnyard grass [23]; [32],3 (Herbicidal rate of 40% or more and less than 70%)
same,"herbicidal effect rating, A: late watergrass",late watergrass [25],3 (Herbicidal rate of 40% or more and less than 70%)
